Experimental findings from ChEMBL document CHEMBL5543092, “Design, synthesis, and biological characterization of proteolysis targeting chimera (PROTACs) for the ataxia telangiectasia and RAD3-related (ATR) kinase” (Eur J Med Chem, 2024) are described below.

Data set [1] relates to MIA PaCa-2. Description: Effect on CRBN expression in patient derived siCRBN transfected human MIA PaCa-2 cells at 2 uM measured after 24 hrs by immunoblot analysis. It counts as functional, cell-based. Background: In western blotting, separated proteins are transferred to a membrane and probed.
In data set [2] the target is T1, Protein cereblon/Serine/threonine-protein kinase ATR (Homo sapiens) (UniProt Q13535+Q96SW2). Description: PROTAC activity at ATR/CRBN in patient derived human MIA PaCa-2 cells assessed as reduction in protein level at 2 uM measured after 3 hrs in presence of 10 uM MG132 by immunoblot analysis. It counts as cell-based.
T1 sequence (Q13535 whole entry, looked up): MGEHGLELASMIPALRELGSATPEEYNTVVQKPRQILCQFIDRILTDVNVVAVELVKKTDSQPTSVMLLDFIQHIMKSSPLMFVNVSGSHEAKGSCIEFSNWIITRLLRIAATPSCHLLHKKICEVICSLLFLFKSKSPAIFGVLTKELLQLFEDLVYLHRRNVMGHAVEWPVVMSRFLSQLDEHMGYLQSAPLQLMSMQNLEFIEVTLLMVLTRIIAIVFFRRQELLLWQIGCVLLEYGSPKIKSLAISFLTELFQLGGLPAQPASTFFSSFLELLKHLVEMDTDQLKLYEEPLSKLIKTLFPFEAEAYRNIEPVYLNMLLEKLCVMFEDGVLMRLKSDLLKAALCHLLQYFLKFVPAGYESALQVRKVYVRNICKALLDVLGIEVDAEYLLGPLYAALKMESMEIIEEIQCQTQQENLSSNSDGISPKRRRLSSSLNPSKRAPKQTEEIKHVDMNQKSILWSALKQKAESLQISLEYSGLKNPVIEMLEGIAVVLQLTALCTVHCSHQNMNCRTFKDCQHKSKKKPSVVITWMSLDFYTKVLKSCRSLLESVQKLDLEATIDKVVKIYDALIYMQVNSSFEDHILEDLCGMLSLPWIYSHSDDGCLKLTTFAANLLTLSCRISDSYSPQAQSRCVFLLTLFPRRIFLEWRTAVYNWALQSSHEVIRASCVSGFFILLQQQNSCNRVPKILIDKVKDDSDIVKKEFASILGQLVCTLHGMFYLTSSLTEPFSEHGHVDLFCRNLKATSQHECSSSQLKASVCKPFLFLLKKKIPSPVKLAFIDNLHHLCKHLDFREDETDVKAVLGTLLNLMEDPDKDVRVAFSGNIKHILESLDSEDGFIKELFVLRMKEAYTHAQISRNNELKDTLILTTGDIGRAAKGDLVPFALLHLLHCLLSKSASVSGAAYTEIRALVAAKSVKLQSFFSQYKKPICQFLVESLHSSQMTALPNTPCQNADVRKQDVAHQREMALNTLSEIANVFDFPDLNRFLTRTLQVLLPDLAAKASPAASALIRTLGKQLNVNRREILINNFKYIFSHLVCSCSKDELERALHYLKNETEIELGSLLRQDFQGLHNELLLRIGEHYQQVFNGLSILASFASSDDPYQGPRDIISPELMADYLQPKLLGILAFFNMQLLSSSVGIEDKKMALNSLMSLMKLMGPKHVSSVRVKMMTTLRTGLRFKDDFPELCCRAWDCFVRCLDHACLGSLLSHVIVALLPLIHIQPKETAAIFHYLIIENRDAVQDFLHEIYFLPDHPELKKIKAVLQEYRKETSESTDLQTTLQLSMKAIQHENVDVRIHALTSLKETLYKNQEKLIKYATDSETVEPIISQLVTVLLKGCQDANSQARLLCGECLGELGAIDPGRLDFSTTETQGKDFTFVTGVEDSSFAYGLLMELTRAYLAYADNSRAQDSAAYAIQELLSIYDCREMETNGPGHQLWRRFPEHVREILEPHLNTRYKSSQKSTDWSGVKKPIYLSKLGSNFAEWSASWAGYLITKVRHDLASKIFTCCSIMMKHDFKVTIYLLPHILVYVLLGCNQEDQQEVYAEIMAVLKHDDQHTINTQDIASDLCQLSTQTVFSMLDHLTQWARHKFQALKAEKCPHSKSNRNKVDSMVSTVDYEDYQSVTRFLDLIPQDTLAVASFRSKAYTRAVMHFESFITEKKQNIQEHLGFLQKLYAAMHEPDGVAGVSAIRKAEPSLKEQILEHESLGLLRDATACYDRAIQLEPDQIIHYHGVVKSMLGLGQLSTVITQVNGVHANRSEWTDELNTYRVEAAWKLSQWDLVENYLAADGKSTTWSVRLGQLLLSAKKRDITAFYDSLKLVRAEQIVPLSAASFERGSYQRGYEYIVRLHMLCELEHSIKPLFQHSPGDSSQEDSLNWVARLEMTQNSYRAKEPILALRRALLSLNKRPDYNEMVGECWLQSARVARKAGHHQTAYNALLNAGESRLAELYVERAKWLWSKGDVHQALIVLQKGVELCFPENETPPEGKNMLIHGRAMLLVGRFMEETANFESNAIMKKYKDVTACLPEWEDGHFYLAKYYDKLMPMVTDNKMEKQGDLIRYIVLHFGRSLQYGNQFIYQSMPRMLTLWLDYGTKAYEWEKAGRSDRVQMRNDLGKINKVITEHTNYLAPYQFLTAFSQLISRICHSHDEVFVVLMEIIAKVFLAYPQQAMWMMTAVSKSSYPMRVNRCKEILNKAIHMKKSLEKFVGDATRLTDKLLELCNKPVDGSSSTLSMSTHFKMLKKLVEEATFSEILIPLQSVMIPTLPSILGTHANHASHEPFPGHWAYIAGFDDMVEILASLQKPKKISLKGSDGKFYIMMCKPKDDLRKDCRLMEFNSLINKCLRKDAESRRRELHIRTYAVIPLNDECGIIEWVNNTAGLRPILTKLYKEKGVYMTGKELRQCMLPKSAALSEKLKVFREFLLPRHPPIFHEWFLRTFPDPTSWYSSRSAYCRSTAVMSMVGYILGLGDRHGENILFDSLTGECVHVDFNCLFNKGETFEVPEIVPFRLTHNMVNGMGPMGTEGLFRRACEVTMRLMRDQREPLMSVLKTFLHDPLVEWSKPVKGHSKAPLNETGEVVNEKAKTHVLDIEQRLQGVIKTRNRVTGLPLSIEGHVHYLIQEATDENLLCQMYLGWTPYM
T1 sequence (Q96SW2 whole entry, looked up): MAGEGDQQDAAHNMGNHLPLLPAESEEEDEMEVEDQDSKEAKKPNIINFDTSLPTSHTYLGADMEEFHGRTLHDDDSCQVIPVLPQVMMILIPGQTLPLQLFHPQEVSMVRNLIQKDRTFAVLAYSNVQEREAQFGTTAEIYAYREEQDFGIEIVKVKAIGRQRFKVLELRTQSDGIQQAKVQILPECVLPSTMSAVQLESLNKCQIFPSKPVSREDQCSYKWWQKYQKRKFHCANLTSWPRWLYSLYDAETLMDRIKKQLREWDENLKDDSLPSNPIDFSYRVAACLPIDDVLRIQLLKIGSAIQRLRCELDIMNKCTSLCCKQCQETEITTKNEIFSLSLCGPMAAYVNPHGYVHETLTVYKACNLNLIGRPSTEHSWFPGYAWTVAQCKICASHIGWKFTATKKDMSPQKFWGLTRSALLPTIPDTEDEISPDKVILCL
Data set [3] can be described thus: Chemical stability of the compound in at pH 7.4 measured at 6 hrs by HPLC based non-enzymatic stability assay. Type of data set: physicochemical. The conditions noted are these: buffer, read-out: Stability.
Data set [4] has as its target T1, Protein cereblon/Serine/threonine-protein kinase ATR (Homo sapiens). Put plainly: PROTAC activity at ATR/CRBN in patient derived human MIA PaCa-2 cells assessed as reduction in protein level at 2 uM measured after 24 hrs by immunoblot analysis relative to untreated control. Also on record: scale not given: the % may be the effect or the level left. It counts as cell-based.

Data set [5] in a line: Plasma stability in human plasma assessed as compound remaining at 20 uM measured after 24 hrs by HPLC analysis. It counts as ADME, cell-free. The conditions noted are these: read-out: Stability.
The target of data set [6] is T1, Protein cereblon/Serine/threonine-protein kinase ATR (Homo sapiens). Description: PROTAC activity at ATR/CRBN in patient derived human MIA PaCa-2 cells assessed as reduction in protein level at 2 uM measured after 3 hrs in presence of 50 nM bortezomib by immunoblot analysis. It counts as cell-based.
A further data set deals with HEK293. Description: Cytotoxicity against human HEK293 cells assessed as cell viability at 50 uM incubated for 24 hrs by Alamar Blue reagent based assay relative to control. As to conditions: read-out: Activity. It counts as functional. In general terms: The colour change of resazurin is a common sign of viable cells or microbes.
The target of data set [7] is T1, Protein cereblon/Serine/threonine-protein kinase ATR (Homo sapiens). Put plainly: PROTAC activity at ATR/CRBN in human HeLa cells assessed as reduction in protein level at 500 nM measured after 24 hrs by immunoblot analysis relative to untreated control. Type of data set: cell-based. Also on record: scale not given: the % may be the effect or the level left.
A short description of data set [8]: Chemical stability of the compound in at pH 7.4 measured at 72 hrs by HPLC based non-enzymatic stability assay. Type of data set: physicochemical. As to conditions: buffer, read-out: Stability.
Data set [9] can be described thus: Chemical stability of the compound in at pH 7.4 measured at 48 hrs by HPLC based non-enzymatic stability assay. It counts as physicochemical. The conditions noted are these: buffer, read-out: Stability.
Data set [10] deals with T1, Protein cereblon/Serine/threonine-protein kinase ATR (Homo sapiens). Description: PROTAC activity at ATR/CRBN in patient derived human MIA PaCa-2 cells assessed as reduction in irinotecan-induced p-CHK1 (S345) level at 2 uM measured after 24 hrs by immunoblot analysis relative to control. Type of data set: cell-based.
For data set [11] the target is unchanged. Description: PROTAC activity at ATR/CRBN in patient derived human MIA PaCa-2 cells assessed as reduction in protein level at 2 uM measured after 24 hrs by immunoblot analysis relative to irinotecan. It counts as cell-based. The arrangement: scale not given: the % may be the effect or the level left.
For data set [12], the system named is HeLa. Description: Effect on DNA-PKcs expression in human HeLa cells at 500 nM incubated for 24 hrs by immunoblot analysis. Type of data set: functional, cell-based.
Data set [13] has as its system MIA PaCa-2. Description: Effect on GSPT1 expression in human MIA PaCa-2 cells at 0.5 to 2 uM incubated for 24 hrs by immunoblot analysis. It counts as functional, cell-based. As to conditions: dose 0.5-2 µM.
Data set [14] deals with MIA PaCa-2. Description: Induction of apoptosis in human MIA PaCa-2 cells assessed as cell death at 2 uM incubated for 24 hrs by Annexin-V/PI based flow cytometry. Type of data set: functional. On the technique in general: Flow cytometry measures light scatter and fluorescence of single cells or particles in a stream.
Data set [15] addresses T1, Protein cereblon/Serine/threonine-protein kinase ATR (Homo sapiens). Put plainly: PROTAC activity at ATR/CRBN in patient derived human MIA PaCa-2 cells assessed as reduction in p-ATR (T1989) level at 2 uM measured after 24 hrs by immunoblot analysis relative to control. Type of data set: cell-based.
Another data set concerns the target ATR/ATRIP (Homo sapiens, UniProt Q13535). Put plainly: Inhibition of human ATR/ATRIP complex using GST-cMyc-p53 substrate measured after 30 mins by HTRF based non-radioactive in vitro assay. Type of data set: protein-complex assay.
The nature of data set [16]: Plasma protein binding in human plasma. Type of data set: ADME, cell-free. The conditions noted are these: read-out: PPB (converted).
Data set [17] is described as follows: Chemical stability of the compound in at pH 7.4 measured at 24 hrs by HPLC based non-enzymatic stability assay. The conditions noted are these: buffer, read-out: Stability. It counts as physicochemical.
In data set [18] the target is T1, Protein cereblon/Serine/threonine-protein kinase ATR (Homo sapiens). Put plainly: PROTAC activity at ATR/CRBN in patient derived human MIA PaCa-2 cells assessed as reduction in protein level at 500 nM measured after 24 hrs by immunoblot analysis relative to untreated control. The arrangement: scale not given: the % may be the effect or the level left. It counts as cell-based.

The test system of data set [19] is HeLa. Description: Effect on ATM expression in human HeLa cells at 500 nM incubated for 24 hrs by immunoblot analysis. It counts as functional, cell-based.
A short description of data set [20]: Chemical stability of the compound in at pH 7.4 measured at 12 hrs by HPLC based non-enzymatic stability assay. It counts as physicochemical. The conditions noted are these: buffer, read-out: Stability.
Data set [21] concerns the target T1, Protein cereblon/Serine/threonine-protein kinase ATR (Homo sapiens). Description: PROTAC activity at ATR/CRBN in human HeLa cells assessed as reduction in p-ATR level at 500 nM measured after 24 hrs by immunoblot analysis relative to untreated control. Type of data set: cell-based. Also on record: scale not given: the % may be the effect or the level left.

Activity calls are given as the source filed them. The calls are words filed in the database; no cut-off is given here.

Chain of ATR/ATRIP (Q13535 whole entry): as the sequence (Q13535 whole entry, looked up) above
Chain of ATR/ATRIP (Q8WXE1 whole entry, further chain): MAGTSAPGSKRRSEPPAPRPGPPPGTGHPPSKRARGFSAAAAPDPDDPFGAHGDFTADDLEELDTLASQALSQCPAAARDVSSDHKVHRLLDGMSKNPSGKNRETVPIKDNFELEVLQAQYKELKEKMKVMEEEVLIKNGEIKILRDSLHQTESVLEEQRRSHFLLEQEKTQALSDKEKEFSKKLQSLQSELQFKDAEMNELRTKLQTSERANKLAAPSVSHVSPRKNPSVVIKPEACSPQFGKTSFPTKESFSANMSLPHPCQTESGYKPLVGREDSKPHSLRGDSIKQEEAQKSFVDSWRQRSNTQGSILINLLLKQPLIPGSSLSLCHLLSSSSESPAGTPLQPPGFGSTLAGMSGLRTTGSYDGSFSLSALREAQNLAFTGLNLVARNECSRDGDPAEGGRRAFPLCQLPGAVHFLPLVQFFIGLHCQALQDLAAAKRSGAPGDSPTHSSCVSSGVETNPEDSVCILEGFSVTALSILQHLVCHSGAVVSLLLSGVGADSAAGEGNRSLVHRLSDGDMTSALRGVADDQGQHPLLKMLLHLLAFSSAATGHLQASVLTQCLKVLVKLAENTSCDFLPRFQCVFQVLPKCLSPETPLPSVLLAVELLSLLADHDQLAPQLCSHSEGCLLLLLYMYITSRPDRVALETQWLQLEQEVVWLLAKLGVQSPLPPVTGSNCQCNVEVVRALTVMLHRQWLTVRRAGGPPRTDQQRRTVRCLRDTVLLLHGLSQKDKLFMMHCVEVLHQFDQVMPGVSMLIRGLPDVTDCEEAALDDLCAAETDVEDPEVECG

Regarding `Nc1ncc(-c2ccc(S(=O)(=O)NCCCCCC(=O)NCCCC#Cc3cccc4c3CN(C3CCC(=O)NC3=O)C4=O)cc2)nc1C(=O)Nc1ccccc1` (stereo not drawn), the outcome (in the data set on MIA PaCa-2 [1]; in [2]; in data set [6]; with HeLa [12]; in the data set with MIA PaCa-2 [13]; with MIA PaCa-2 [14]) was inactive. The result in the data set with HeLa [19] was inactive. In addition, the remaining at 6 h in data set [3] was 102%. In addition, the Activity in data set [4] was found to be 40%; in data set [7], 60%; in [11], 80%; in data set [18], 40%; in data set [21], 60%. Besides, the remaining at 24 h, 20 µM in data set [5] was found to be 75%. The viability at 50 µM in the data set on HEK293 is 77.1%. Besides, the remaining at 72 h in [8] worked out at 115%. In addition, the remaining at 48 h in data set [9] amounted to 110%. In addition, the fold change (FC) was 0.5 in data set [10] and 0.1 in data set [15]. At ATR/ATRIP, the IC50 was above 10 µM. In data set [16], the fraction unbound was 0.106. Also, the remaining at 24 h in data set [17] turned out to be 106%. Besides, the remaining at 12 h in data set [20] came out at 104%.

One may read the IC50 as the concentration that gives 50% inhibition.
